Assay results reported in patent publication US20080227638A1, “Use of abscisic acid to enhance growth control” (priority 2007, published 2008).

Legend:
Assay type in all cases: in vivo
[1] = system: tomato (variety: Rutgers); assay: Tomato leaf transpiration, porometer (Example 9)
From the text: (§1) Tomato (variety: Rutgers) seeds were sown in 18-cell flat filled with Promix PGX (available from Premier Horticulture Inc. Quakertown, Pa.) and grown for 3 weeks to allow for germination and initial growth. Plants were then transplanted into pots (18 cm in diameter and 18 cm in height), filled with Promix BX (available from Premier Horticulture Inc. Quakertown, Pa.), and grown for one week before the chemical treatment. Plants received daily irrigation and weekly fertilizer (1 g/L all purpose fertilizer 20-20-20, available from The Scotts Company, Marysville, Ohio).
(§2) During the chemical treatment, a 15 mL (2.5 mL/plant) solution was foliar sprayed on the tomato canopy. Leaf transpiration rates were measured using a LI-1600 Steady State Porometer (LI-Cor, Lincoln, Nebr.) at 1, 2, 3, 4, 7, 10 and 15 days after treatment. Leaf transpiration rate was normalized to the percentage of control plant to minimize the experimental errors caused by environmental factors. Plant height was measured at 0, 2, 4, 7, 10 and 15 days after treatment. Growth rate was calculated based on the changes of plant height in certain intervals. The plants were harvested and the leaf number was counted at 15 days after treatment.

[2] = system: tomato (variety: Rutgers); assay: Tomato plant height, growth rate and leaf number (Example 9); settings: for Leaf number: 15 days after treatment
From the text: as §1, §2

creeping bentgrass = assay: Golf course green creeping bentgrass height, ABA and trinexapac-ethyl (Example 4); settings: 200 ppm ABA
Description: (§3) Field studies were conducted at the nursery green or the practice green at Countryside golf course (Mundelein, Ill.). Both greens were sand based and growing Penncross creeping bentgrass. Grass was managed with typical Illinois golf course management practices.
(§4) Chemical solutions were prepared with distilled water. Tween 20 (0.05% v/v) was used as an, adjuvant. Both trinexapac-ethyl (commercial product Primo Maxx, 11.3% active ingredient) and paclobutrazol (commercial product Trimmit 2SC, 22.3% active ingredient) were purchased from Syngenta Crop Protection Inc. (Greensboro, N.C.). Uniconazole-P (commercial product Sumagic, 0.55% active ingredient) was obtained from Valent U.S.A. Corporation (Walnut Creek, Calif.).
(§5) When treated with paclobutrazol or uniconazole-P, turfgrass received irrigation within 24 hours after application to flush chemicals to the root zone. After treatment, turfgrasses were arranged in a randomized complete block experimental design. Turfgrass quality, turfgrass height or clip fresh weight was measured on assigned dates. Turfgrass quality was visually rated on a 0-9 scale based on the color, uniformity and density of the grass with 0 as the worst and 9 as the best. Turfgrass height was measured as the distance between canopy surface and soil. Clips were collected from each plot; all plots were cut to a uniform height.
(§6) All experiments were randomized complete block experimental design. Data were analyzed by analysis of variance. Duncan's new multiple range tests at α=0.05 were used for mean separations.
(§7) Tween 20 (0.05% w/v) was included as an adjuvant.

Kentucky bluegrass = assay: Greenhouse Kentucky bluegrass height and quality, ABA and trinexapac-ethyl (Example 1); settings: 200 ppm ABA
Description: Greenhouse studies were conducted at the Research Farm of Valent BioSciences Corporation (Long Grove, Ill.). Grasses were grown in pots (18 cm in diameter and 18 cm in height) filled with Promix BX (available from Premier Horticulture Inc. Quakertown, Pa.). Grass was irrigated daily by an overhead irrigation system. The irrigation system was set up with multiple Tornado Mist Spray Heads (10 GPH at 40 PSI-Wetted diameter, NDS/Raindrip, Woodland Hills, Calif.). Spray heads were 1-meter apart from each other and 75 cm above grass canopy. Grass was cut with a scissor at 2.5 cm height and fertilizer (1 g/L all purpose fertilizer 20-20-20, available from The Scotts Company, Marysville, Ohio) was applied once per week.
as §4, §5, §6
Kentucky bluegrass sod (unknown variety) was purchased from Deak sod farms, Inc. (Union Grove, Wis.). Grass was grown in the greenhouse in pots (n=6 pots per treatment) for establishment before treatment. […] Tween 20 (0.05% w/v) was included as an adjuvant. Turfgrass canopy was not cut during the experimental period.

creeping bentgrass green = assay: Soil moisture of creeping bentgrass green, ABA and trinexapac-ethyl (Example 8); settings: 500 ppm ABA
Description: as §3, §4, §5, §6, §7

[3] = 250 ppm ABA, day 2 after treatment
[4] = 250 ppm ABA, day 4 after treatment
[5] = 250 ppm ABA, day 7 after treatment
[6] = 250 ppm ABA, day 10 after treatment
[7] = 250 ppm ABA, day 15 after treatment
[8] = 500 ppm ABA, day 2 after treatment
[9] = 500 ppm ABA, day 4 after treatment
[10] = 500 ppm ABA, day 7 after treatment
[11] = 500 ppm ABA, day 10 after treatment
[12] = 500 ppm ABA, day 15 after treatment
[13] = 1000 ppm ABA, day 2 after treatment
[14] = 1000 ppm ABA, day 4 after treatment
[15] = 1000 ppm ABA, day 7 after treatment
[16] = 1000 ppm ABA, day 10 after treatment
[17] = 1000 ppm ABA, day 15 after treatment
[18] = 2000 ppm ABA, day 2 after treatment
[19] = 2000 ppm ABA, day 4 after treatment
[20] = 2000 ppm ABA, day 7 after treatment
[21] = 2000 ppm ABA, day 10 after treatment
[22] = 2000 ppm ABA, day 15 after treatment

S-abscisic acid [ABA]
Transpiration ([1]; 250 ppm ABA, day 1 after treatment): 87 % of control | Transpiration [1, 3]: 86 % of control | Transpiration ([1]; 250 ppm ABA, day 3 after treatment): 91 % of control | Transpiration [1, 4]: 95 % of control | Transpiration [1, 5]: 99 % of control | Transpiration [1, 6]: 98 % of control | Transpiration [1, 7]: 99 % of control | Transpiration ([1]; 500 ppm ABA, day 1 after treatment): 78 % of control | Transpiration [1, 8]: 78 % of control | Transpiration ([1]; 500 ppm ABA, day 3 after treatment): 84 % of control | Transpiration [1, 9]: 88 % of control | Transpiration [1, 10]: 98 % of control | Transpiration [1, 11]: 99 % of control | Transpiration [1, 12]: 99 % of control | Transpiration ([1]; 1000 ppm ABA, day 1 after treatment): 60 % of control | Transpiration [1, 13]: 73 % of control | Transpiration ([1]; 1000 ppm ABA, day 3 after treatment): 76 % of control | Transpiration [1, 14]: 84 % of control | Transpiration [1, 15]: 93 % of control | Transpiration [1, 16]: 99 % of control | Transpiration [1, 17]: 97 % of control | Transpiration ([1]; 2000 ppm ABA, day 1 after treatment): 46 % of control | Transpiration [1, 18]: 58 % of control | Transpiration ([1]; 2000 ppm ABA, day 3 after treatment): 70 % of control | Transpiration [1, 19]: 76 % of control | Transpiration [1, 20]: 85 % of control | Transpiration [1, 21]: 95 % of control | Transpiration [1, 22]: 100 % of control | Leaf number ([2]; 250 ppm ABA): 12.2 | Plant height ([2]; 250 ppm ABA, day 0 after treatment): 9.9 cm | Growth rate [2, 3]: 1.5 cm/day | Plant height [2, 3]: 12.8 cm | Growth rate [2, 4]: 1.6 cm/day | Plant height [2, 4]: 16.3 cm | Growth rate [2, 5]: 2.7 cm/day | Plant height [2, 5]: 28.5 cm | Growth rate [2, 6]: 2.1 cm/day | Plant height [2, 6]: 30.4 cm | Growth rate [2, 7]: 2.3 cm/day | Plant height [2, 7]: 45.5 cm | Leaf number ([2]; 500 ppm ABA): 12.0 | Plant height ([2]; 500 ppm ABA, day 0 after treatment): 10.1 cm | Growth rate [2, 8]: 1.3 cm/day | Plant height [2, 8]: 12.5 cm | Growth rate [2, 9]: 1.6 cm/day | Plant height [2, 9]: 16.3 cm | Growth rate [2, 10]: 2.4 cm/day | Plant height [2, 10]: 27.0 cm | Growth rate [2, 11]: 2.0 cm/day | Plant height [2, 11]: 29.6 cm | Growth rate [2, 12]: 2.3 cm/day | Plant height [2, 12]: 44.1 cm | Leaf number ([2]; 1000 ppm ABA): 12.0 | Plant height ([2]; 1000 ppm ABA, day 0 after treatment): 9.8 cm | Growth rate [2, 13]: 1.0 cm/day | Plant height [2, 13]: 11.7 cm | Growth rate [2, 14]: 1.2 cm/day | Plant height [2, 14]: 14.5 cm | Growth rate [2, 15]: 2.2 cm/day | Plant height [2, 15]: 25.3 cm | Growth rate [2, 16]: 1.8 cm/day | Plant height [2, 16]: 27.4 cm | Growth rate [2, 17]: 2.0 cm/day | Plant height [2, 17]: 41.6 cm | Leaf number ([2]; 2000 ppm ABA): 12.0 | Plant height ([2]; 2000 ppm ABA, day 0 after treatment): 9.8 cm | Growth rate [2, 18]: 0.9 cm/day | Plant height [2, 18]: 11.5 cm | Growth rate [2, 19]: 1.3 cm/day | Plant height [2, 19]: 14.9 cm | Growth rate [2, 20]: 1.9 cm/day | Plant height [2, 20]: 23.2 cm | Growth rate [2, 21]: 1.6 cm/day | Plant height [2, 21]: 25.8 cm | Growth rate [2, 22]: 1.9 cm/day | Plant height [2, 22]: 40.5 cm | Turfgrass height (creeping bentgrass; 7 days after treatment): 5.3 cm | Turfgrass height (creeping bentgrass; 14 days after treatment): 8.2 cm | Turfgrass height (Kentucky bluegrass; 7 days after treatment): 9.4 cm | Turfgrass height (Kentucky bluegrass; 23 days after treatment): 19.0 cm | Soil moisture (creeping bentgrass green; 2 days after treatment): 11.4% | Soil moisture (creeping bentgrass green; 7 days after treatment): 10.9%
